The record followed here is patent US9365583B2, “Substituted pyrazoles and uses thereof” (Genentech, Inc., priority 2013, dated 2016).

Structures are written as SMILES.

This assay addresses T1, N-terminally GST-tagged DLK (catalytic domain amino acid 1-520) (Homo sapiens, UniProt Q12852).
T1 construct: N-terminally GST-tagged DLK (catalytic domain amino acid 1-520); purchased Carna Bioscience
T1 sequence (Q12852 1-520): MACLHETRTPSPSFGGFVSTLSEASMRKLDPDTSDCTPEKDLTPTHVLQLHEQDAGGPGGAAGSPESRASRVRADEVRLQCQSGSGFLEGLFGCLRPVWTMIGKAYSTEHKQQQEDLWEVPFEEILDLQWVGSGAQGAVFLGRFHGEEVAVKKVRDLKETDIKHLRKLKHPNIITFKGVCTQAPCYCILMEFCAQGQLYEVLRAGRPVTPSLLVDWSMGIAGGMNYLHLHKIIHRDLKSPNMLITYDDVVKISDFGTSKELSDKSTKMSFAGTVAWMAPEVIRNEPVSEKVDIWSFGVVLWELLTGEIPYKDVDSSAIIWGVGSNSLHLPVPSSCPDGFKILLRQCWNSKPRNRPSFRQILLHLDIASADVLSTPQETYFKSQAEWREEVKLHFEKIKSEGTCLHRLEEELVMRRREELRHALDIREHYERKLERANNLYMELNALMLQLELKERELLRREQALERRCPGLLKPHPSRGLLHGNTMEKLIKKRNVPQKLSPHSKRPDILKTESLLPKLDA
Nature of the assay: DLK TR-FRET inhibition assay. Format: biochemical. To be noted: 5 nM GST-DLK, 40 nM HIS-MKK4 K131M substrate, 30 μM ATP, 60 minutes at ambient temperature. As to the method:
DLK TR-FRET inhibition assay: DLK kinase reactions (20 μL) containing 5 nM N-terminally GST-tagged DLK (catalytic domain amino acid 1-520) (Carna Bioscience), 40 nM N-terminally HIS-tagged MKK4 K131M substrate, and 30 μM ATP in kinase reaction buffer (50 mM HEPES, pH 7.5, 0.01% Triton X-100, 0.01% Bovine γ-Globulins, 2 mM DTT, 10 mM MgCl2 and 1 mM EGTA), and testing compound 1:3 serial diluted starting at 20 uM were incubated at ambient temperature for 60 minutes in 384 well OptiPlate (Perkin Elmer). To quench kinase reactions and detect phosphorylated MKK4, 15 μL of TR-FRET antibody mixture containing 2 nM anti-phosphorylated MKK4 labeled with Europium cryptate (Cisbio) and 23 nM anti-HIS labeled with D2 (Cisbio) in detection buffer (25 mM Tris pH 7.5, 100 mM NaCl, 100 mM EDTA, 0.01% Tween-20, and 200 mM KF) was added to the reaction mixture. The detection mixture was incubated for 3 hours at ambient temperature and the TR-FRET was detected with an EnVision multilabel plate reader (Perkin-Elmer) using the LANCE/DELFIA Dual Enh label from Perkin-Elmer (excitation filter: UV2 (TRF) 320 and emission filters: APC 665 and Europium 615).
`CO[C@H]1CCN([C@@H]2C[C@@H]3[C@H](C2)[C@H]3c2cc(-c3cnc(N)c(OC(F)(F)F)c3)nn2C(C)C)C1` [compound 214, 5-(1-isopropyl-5-((1R,3s,5S,6S)-3-((S)-3-methoxypyrrolidm-1-yl)bicyclo[3.1.0]hexan-6-yl)-1H-pyrazol-3-yl)-3-(trifluoromethoxy) pyridin-2-amine] returned a Ki of 1.5 nM.
For `CC(C)n1nc(-c2cnc(N)c(OC(F)F)c2)cc1[C@H]1[C@@H]2C[C@H](OCC(C)(C)O)C[C@@H]21` [compound 168, 1-(((1R,3r,5S,6r)-6-(3-(6-ammo-5-(difluoromethoxy)pyridin-3-yl)-1-isopropyl-1H-pyrazol-5-yl)bicyclo[3.1.0]hexan-3-yl)oxy)-2-methylpropan-2-ol] the value was 2.7 nM; for `CC(C)n1nc(-c2cnc(N)c(OC(F)F)c2)cc1[C@H]1[C@@H]2C[C@@H](OC3COC3)C[C@@H]21` [compound 231, 3-(difluoromethoxy)-5-(1-iso-propyl-5-((1R,3s,5S,6r)-3-(oxetan-3-yloxy)bicyclo[3.1.0]hexan-6-yl)-1H-pyrazol-3-yl)pyridin-2-amine], 5.5 nM.
Then `CC(C)n1nc(-c2cnc(N)c(OC(F)F)c2)cc1[C@H]1[C@@H]2C[C@@H](N3CC4(CCCO4)C3)C[C@@H]21` [compound 223, 5-(5-((1R,3s,5S,6r)-3-(5-oxa-2-azaspiro[3.4]octan-2-yl)bicyclo [3.1.0]hexan-6-yl)-1-isopropyl-1H-pyrazol-3-yl)-3-(difluoro-methoxy)pyridin-2-amine], with 2.6 nM; and `CC(C)n1nc(-c2cnc(N)c(OC(F)F)c2)cc1[C@H]1[C@@H]2C[C@H](N3C[C@@H]4C[C@H]3CO4)C[C@@H]21` [compound 83, 5-(5-((1R,3r,5S,6S)-3-((1S,4S)-2-oxa-5-azabicyclo[2.2.1]heptan-5-yl)bicyclo[3.1.0]hexan-6-yl)-1-isopropyl-1H-pyrazol-3-yl)-3-(difluoromethoxy)pyridin-2-amine], with 0.12 nM.
In the case of `CC(C)n1nc(-c2cnc(N)c(OC(F)(F)F)c2)cc1[C@H]1[C@@H]2C[C@@H](N3CCN(C)CC3)C[C@@H]21` [compound 66, 5-(1-isopropyl-5-((1R,3s,5S,6r)-3-(4-methylpiperazin-1-yl)bicyclo [3.1.0]hexan-6-yl)-1H-pyrazol-3-yl)-3-(trifluoromethoxy) pyridin-2-amine], affinity was put at a Ki of 2.26 nM.
Then `CC(C)n1nc(-c2cnc(N)c(OC(F)F)c2)cc1[C@H]1[C@@H]2C[C@H](N3CC(F)(F)C3)C[C@@H]21` [compound 43, 5-(5-((1R,3r,5S,6r)-3-(3,3-difluoro-azetidin-1-yl)bicyclo[3.1.0]hexan-6-yl)-1-isopropyl-1H-pyrazol-3-yl)-3-(difluoromethoxy) pyridin-2-amine], with 3.05 nM; and `CC(C)n1nc(-c2cnc(N)c(OC(F)F)c2)cc1[C@H]1[C@@H]2C[C@H](N3CCOCC3)C[C@@H]21` [compound 86, 3-(difluoromethoxy)-5-(1-isopropyl-5-((1R,3r,5S,6r)-3-morpholino-bicyclo[3.1.0]hexan-6-yl)-1H-pyrazol-3-yl)pyridin-2-amine], with 1.6 nM; and `Nc1ncc(-c2cc([C@H]3[C@@H]4C[C@H](N5CCOCC5)C[C@@H]43)nn2C2CCC2)cc1OC(F)F` [compound 132, 5-(1-cyclobutyl-3-((1R,3r,5S,6r)-3-morpholinobicyclo[3.1.0]hexan-6-yl)-1H-pyrazol-5-yl)-3-(difluoromethoxy)pyridin-2-amine], with 258 nM.
For `CO[C@@H]1CCN([C@@H]2C[C@@H]3[C@H](C2)[C@H]3c2cc(-c3cnc(N)c(OC(F)(F)F)c3)nn2C(C)C)C1` [compound 193, 5-(1-isopropyl-5-((1R,3s,5S,6R)-3-((R)-3-methoxypyrrolidin-1-yl)bicyclo[3.1.0]hexan-6-yl)-1H-pyrazol-3-yl)-3-(trifluoromethoxy) pyridin-2-amine] the value was 1.4 nM; for `CC(C)n1nc(-c2cnc(N)c(C(F)(F)F)c2)cc1[C@H]1[C@@H]2C[C@H](N3CC4(CCCO4)C3)C[C@@H]21` [compound 227, 5-(5-((1R,3r,5S,6r)-3-(5-oxa-2-azaspiro[3.4]octan-2-yl)bicyclo [3.1.0]hexan-6-yl)-1-isopropyl-1H-pyrazol-3-yl)-3-(trifluoro-methyl)pyridin-2-amine], 4.5 nM.
`CC(C)n1nc(-c2cnc(N)c(C(F)(F)F)c2)cc1[C@H]1[C@@H]2C[C@@H](N)C[C@@H]21` [compound 276, 5-(5-((1R,3s,5S,6r)-3-aminobicyclo [3.1.0]hexan-6-yl)-1-isopropyl-1H-pyrazol-3-yl)-3-(trifluoro-methyl)pyridin-2-amine]: the Ki was 1.8 nM. This Ki lies about 2.5-fold lower than the previous one.
Then `Nc1ncc(-c2cc([C@H]3[C@@H]4C[C@@H](N5CCOCC5)C[C@@H]43)n(CC3CC3)n2)cc1OC(F)(F)F` [compound 292, 5-(1-(cyclopropylmethyl)-5-((1R,3s,5S,6r)-3-morpholinobicyclo [3.1.0]hexan-6-yl)-1H-pyrazol-3-yl)-3-(trifluoromethoxy) pyridin-2-amine], with 4.6 nM.
For `COCC1(F)CCN(C2C[C@@H]3C(c4cc(-c5cnc(N)c(OC(F)F)c5)nn4C(C)C)[C@@H]3C2)C1` (single isomer, unassigned) [compound 171] the value was 5.4 nM; for `CC(C)n1nc(-c2cnc(N)c(OC(F)(F)F)c2)cc1[C@H]1[C@@H]2C[C@@H](N(C)C3COC3)C[C@@H]21` [compound 48, 5-(1-isopropyl-5-((1R,3s,5S,6r)-3-(methyl(oxetan-3-yl)amino)bicyclo[3.1,0]hexan-6-yl)-1H-pyrazol-3-yl)-3-(trifluoromethoxy) pyridin-2-amine], 3.1 nM.
Then `CC(C)n1nc(-c2cnc(N)c(OC(F)F)c2)cc1[C@H]1[C@@H]2C[C@@H](Cl)C[C@@H]21` [compound 236, 5-(5-((1R,3s,5S,6r)-3-chlorobicyclo [3.1.0]hexan-6-yl)-1-isopropyl-1H-pyrazol-3-yl)-3-(difluoro-methoxy)pyridin-2-amine], with 15.8 nM; and `CC(C)n1nc(-c2cnc(N)c(OC(F)(F)F)c2)cc1[C@H]1[C@@H]2C[C@@H](N3CCOC[C@@H]3C)C[C@@H]21` [compound 104, 5-(1-isopropyl-5-((1R,3s,5S,6S)-3-((S)-3-methylmorpholino)bicyclo[3.1.0]hexan-6-yl)-1H-pyrazol-3-yl)-3-(trifluoromethoxy) pyridin-2-amine], with 2.43 nM.
On to `CC(C)n1nc(-c2cnc(N)c(OC(F)F)c2)cc1[C@H]1[C@@H]2C[C@H](N3CCN(CC(F)F)CC3)C[C@@H]21` [compound 264, 5-(5-((1R,3r,5S,6r)-3-(4-(2,2-difluoroethyl)piperazin-1-yl)bicyclo [3.1.0]hexan-6-yl)-1-isopropyl-1H-pyrazol-3-yl)-3-(difluoromethoxy)pyridin-2-amine], for which the Ki is 1.8 nM.
For `CC(C)N1CCN([C@H]2C[C@@H]3[C@H](C2)[C@H]3c2cc(-c3cnc(N)c(OC(F)F)c3)nn2C(C)C)CC1` [compound 177, 3-(difluoromethoxy)-5-(1-isopropyl-5-((1R,3r,5S,6r)-3-(4-isopropyl-piperazin-1-yl)bicyclo[3.1.0]hexan-6-yl)-1H-pyrazol-3-yl) pyridin-2-amine] the value was 1.1 nM.
